Target: T1, Mineralocorticoid receptor (Homo sapiens) (UniProt P08235)
T1 sequence (whole entry): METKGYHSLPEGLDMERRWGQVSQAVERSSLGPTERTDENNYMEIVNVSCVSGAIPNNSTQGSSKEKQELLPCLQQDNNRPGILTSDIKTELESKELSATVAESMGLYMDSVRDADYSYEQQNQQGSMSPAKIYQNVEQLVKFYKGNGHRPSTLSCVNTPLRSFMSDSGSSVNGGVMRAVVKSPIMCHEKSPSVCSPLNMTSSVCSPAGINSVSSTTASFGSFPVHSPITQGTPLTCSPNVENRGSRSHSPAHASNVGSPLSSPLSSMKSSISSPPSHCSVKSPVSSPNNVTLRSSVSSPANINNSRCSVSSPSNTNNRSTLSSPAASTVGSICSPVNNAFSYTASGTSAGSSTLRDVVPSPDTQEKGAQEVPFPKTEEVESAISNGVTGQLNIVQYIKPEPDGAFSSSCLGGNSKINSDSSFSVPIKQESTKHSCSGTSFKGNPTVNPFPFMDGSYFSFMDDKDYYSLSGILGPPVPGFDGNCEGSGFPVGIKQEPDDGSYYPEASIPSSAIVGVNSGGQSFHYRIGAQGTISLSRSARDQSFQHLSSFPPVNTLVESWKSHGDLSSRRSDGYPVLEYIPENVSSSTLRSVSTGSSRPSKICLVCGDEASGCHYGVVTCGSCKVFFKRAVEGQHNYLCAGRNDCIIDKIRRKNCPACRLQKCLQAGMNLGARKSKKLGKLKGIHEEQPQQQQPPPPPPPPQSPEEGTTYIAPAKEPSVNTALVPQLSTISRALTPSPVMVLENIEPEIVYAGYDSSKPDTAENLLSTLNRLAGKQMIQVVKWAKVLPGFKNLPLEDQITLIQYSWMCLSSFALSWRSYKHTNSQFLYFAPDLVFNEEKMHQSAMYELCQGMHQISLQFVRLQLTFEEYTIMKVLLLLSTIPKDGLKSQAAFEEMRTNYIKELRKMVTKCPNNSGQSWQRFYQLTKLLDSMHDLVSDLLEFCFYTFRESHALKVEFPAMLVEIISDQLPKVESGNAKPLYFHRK
Test: Displacement of [3H]aldosterone from mineralocorticoid receptor of rabbit kidney
Conditions: Oryctolagus cuniculus; target entry is the homologue from another species

Row | RBA | Structure (SMILES)
1 | 6% | C[C@H]1C[C@@]2(C)C(CC[C@@]23CCC(=O)O3)C2CCC3=CC(=O)CCC3=C21 (some centres undefined)
2 | 4% | CC(=O)S[C@@H]1CC2=CC(=O)CC[C@]2(C)[C@H]2CC[C@@]3(C)[C@@H](CC[C@@]34CCC(=O)O4)[C@H]12
3 | 100% | C[C@]12CCC(=O)C=C1CC[C@@H]1[C@@H]2[C@@H](O)C[C@]2(C=O)[C@@H](C(=O)CO)CC[C@@H]12
4 | 7% | C/C=C1\C[C@@]2(C)C(CC[C@@]23CCC(=O)O3)C2CCC3=CC(=O)CCC3=C12 (some centres undefined)
5 | 21% | CC(=O)S[C@@H]1CC2=CC(=O)C=C[C@]2(C)[C@H]2CC[C@@]3(C)[C@@H]([C@@H]4C[C@@H]4[C@@]34CCC(=O)O4)[C@H]12
6 | 13% | C[C@]12CCC3=C4CCC(=O)C=C4CCC3C1CC[C@@]21CCC(=O)O1 (some centres undefined)
7 | 2% | C=C/C=C1\C[C@@]2(C)C(CC[C@@]23CCC(=O)O3)C2CCC3=CC(=O)CCC3=C12 (some centres undefined)
8 | 20% | C[C@@H]1C[C@H]2[C@@H]3CCC4=CC(=O)C=C[C@]4(C)[C@@]3(F)[C@@H](O)C[C@]2(C)[C@@]1(O)C(=O)CO
9 | 14% | C=C[C@H]1C[C@@]2(C)C(CC[C@@]23CCC(=O)O3)C2CCC3=CC(=O)CCC3=C21 (some centres undefined)
10 | 1% | C[C@]12CCC(=O)C=C1C=C[C@@H]1[C@@H]2CC[C@@]2(C)[C@H]1CC[C@@]21CCC(=O)O1
11 | < 0.1% | C[C@]12C[C@H](CCCO)C3=C4CCC(=O)C=C4CCC3C1CC[C@@]21CCC(=O)O1 (some centres undefined)
12 | < 0.1% | CC(C)(C)OCCC[C@H]1C[C@@]2(C)C(CC[C@@]23CCC(=O)O3)C2CCC3=CC(=O)CCC3=C21 (some centres undefined)
13 | 0.5% | COCCC[C@H]1C[C@@]2(C)C(CC[C@@]23CCC(=O)O3)C2CCC3=CC(=O)CCC3=C21 (some centres undefined)
14 | 110% | C=C=C[C@H]1C[C@@]2(C)C(CC[C@@]23CCC(=O)O3)C2CCC3=CC(=O)CCC3=C21 (some centres undefined)

Source: ChEMBL document CHEMBL1126937, “Synthesis of new 11 beta-substituted spirolactone derivatives. Relationship with affinity for mineralocorticoid and glucocorticoid receptors” (J Med Chem, 1993)
